Results taken from a melting point compilation (Tetko et al.).

## O=C(OCCC(OC(=O)c1ccccc1)c1ccccc1)c1ccccc1 (centres undefined)
  melting point: 51 °C

## O=C(Nc1ccccc1SC(=O)c1ccccc1)c1ccccc1
  melting point: 152 °C

## CC(=O)Nc1ccc(C(F)(F)F)cc1Cl
  melting point: 136 °C

## CCCCCCC(C)(C)S
  melting point: -43.1 °C

## O=C=Nc1ccc(-c2ncccn2)cc1
  melting point: 85.5 to 87.5 °C

## CCCC(=O)c1ccc(O)cc1
  melting point: 91 °C

## COC1=C(OC)C(=O)C(C)=C(C)C1=O
  melting point: 62.5 °C

## COC(=O)c1cccc(CN2CCOCC2)c1
  melting point: 46 to 47 °C

## Cc1ccc(-c2nnc(-c3ccccc3)c3c(C)onc23)cc1
  melting point: 206 °C

## CC(=O)N(C)C(=O)COC(=O)c1ccccc1
  melting point: 102 °C

## OCCCCC(O)CO (centres undefined)
  melting point: 25 to 32 °C

## C=C1C(=O)C23C(OC(C)=O)CC4C(C)(C)CCC(OC(C)=O)C4(C)C2C(OC(C)=O)CC1(O)C3OC(C)=O (centres undefined)
  melting point: 278 °C

## Cc1cc(NS(=O)(=O)c2ccc(N)cc2)n(-c2ccccc2)n1
  melting point: 195 °C

## Cn1c(C(=O)O)cc2occc21
  melting point: 200 °C

## c1cc(OCC2CO2)ccc1OCC1CO1 (centres undefined)
  melting point: 111 °C

## CNCCOC(=O)C=C1CCC2C(C(O)CC3C(C)(C(=O)OC)CCCC23C)C1C (centres undefined)
  melting point: 115 °C

## Oc1cccc2cc3cccc(O)c3c(O)c12
  melting point: 178 °C

## C=C(C)C(C)(C)CC
  melting point: -69 °C

## CCOC(=O)C(Cc1c[nH]c2ccccc12)NC(C)=O (centres undefined)
  melting point: 106 °C

## O=C(c1ccccc1)c1ccc2c3c(cccc13)CC2
  melting point: 101 °C

## CCOc1ccc(-c2nnc3n2NC(c2ccc(N(C)C)cc2)S3)cc1 (centres undefined)
  melting point: 137 °C

## CCC1=C(C)C2=CCC=CC2=N1
  melting point: 64 °C

## Cn1c(=O)n(-c2cccc(Cl)c2)c(=O)c2c3c(sc21)CCCC3
  melting point: 240 to 241 °C

## N#Cc1ccc(OCc2ccc3nonc3c2)cc1
  melting point: 160 to 162 °C

## COc1c(F)ccc(C(N)=O)c1F
  melting point: 112 °C

## CC1(C)C(C=C(Cl)C(F)(F)F)C1C(=O)OC(C#N)c1cccc(Oc2ccccc2)c1 (centres undefined)
  melting point: 55.6 °C

## CC12CCC(O)CC1=CCC1C2CCC2(C)C1CCC2(O)C#Cc1ccccc1 (centres undefined)
  melting point: 162 to 165 °C

## COC(=O)c1cocc1C(=O)OC
  melting point: 42 to 47 °C

## Cn1cncc1C(=O)NN
  melting point: 186 to 187 °C

## O=C(OC1CCCCC1)C(=O)OC1CCCCC1
  melting point: 43.5 °C

## Cc1ccc(-c2snc(Cl)c2C#N)cc1
  melting point: 82 to 83 °C

## OC1(c2ccc(Br)cc2)CCNCC1
  melting point: 163 to 168 °C

## NS(=O)(=O)c1ccc(SCCCO)c([N+](=O)[O-])c1
  melting point: 163 °C

## O=[N+]([O-])c1cc([N+](=O)[O-])c(C(Cl)C(Cl)c2ccccc2)cc1/C=C\c1ccccc1 (centres undefined)
  melting point: 181 °C

## ClC1CCCCC1
  melting point: -44 °C

## Cc1ncccn1
  melting point: -4 °C

## NC(COc1ccccc1)=NO
  melting point: 93 to 94 °C

## COc1cccc(C=CC(=O)O)c1
  melting point: 116 to 119 °C

## COC(=O)C1=C(N)Oc2cc(C)n(CCc3ccccc3)c(=O)c2C1c1ccc(OC)cc1 (centres undefined)
  melting point: 211 to 213 °C

## NCc1ccc2c(Br)cccc2c1
  melting point: 111 to 112 °C

## FC(F)(F)c1cc(-c2cccs2)nc2cc(-c3cccs3)nn12
  melting point: 158 °C

## CCOc1ccc(-c2nnc3n2NC(c2ccccc2)S3)cc1 (centres undefined)
  melting point: 118 °C

## O=Cc1ccc(OCc2c(F)cccc2Cl)cc1
  melting point: 74 to 78 °C

## CCOC(=O)c1c(NC(=O)CN2CCN(c3ccccc3)CC2)sc2c1CCCC2
  melting point: 187 to 188 °C

## CCCC(C(N)=O)n1nc2ccccc2n1 (centres undefined)
  melting point: 126 °C

## CCOC(=O)c1cnc(N)nc1C
  melting point: 224 to 225 °C

## CCC(C)c1ccccc1OC(=O)NC (centres undefined)
  melting point: 31.5 °C

## CC(C)CCCCCOC(=O)c1ccccc1C(=O)OCCCCCC(C)C
  melting point: -4 °C

## ClC1OCCOC1Cl (centres undefined)
  melting point: 30 °C

## Nc1ccc(-c2ccc(N)c(Cl)c2)cc1Cl
  melting point: 132 °C

## O=C(Cl)c1ccc(N=Nc2ccccc2)cc1
  melting point: 93 to 97 °C

## COCCN1CCCNCC1
  melting point: 67 °C

## COC(=O)C1=C(N)CCN(Cc2ccccc2)C1
  melting point: 87 to 89 °C

## CN1CCCN(C)C1=O
  melting point: -20 °C

## O=c1[nH]c(=S)[nH]c2ccccc12
  melting point: 320 to 322 °C

## Oc1ccc(C2COc3cc(O)ccc3C2)cc1 (centres undefined)
  melting point: 190 °C

## CCC(Br)(CC)C(=O)NC(=O)NC(C)=O
  melting point: 109 °C

## COc1ccc(N/N=C2\C(=O)N(CO)N=C2C(F)(F)F)cc1
  melting point: 142 °C

## OCc1cccc2ccsc12
  melting point: 76.5 to 78 °C

## C=CCn1c(SC)nc2nc(SC)n(C)c2c1=O
  melting point: 111 to 113 °C

## C#CCOC(=O)C(C)Oc1ccc(Oc2ncc(Cl)cc2F)cc1 (centres undefined)
  melting point: 59.5 °C

## COC(=O)C1C(O)CCC2CN3CCc4c([nH]c5ccccc45)C3CC21 (centres undefined)
  melting point: 234 °C

## NS(=O)(=O)c1cc(Cl)sc1Cl
  melting point: 131 to 133 °C

## CC/C=C/Br
  melting point: -100 °C

## Brc1ccc(-c2cccs2)cc1
  melting point: 95 to 96 °C

## CC(C)(C)OC(=O)N1CCN(CCO)CC1
  melting point: 39 to 43 °C

## CS(=O)(=O)c1ccc(Br)cc1
  melting point: 102 to 105 °C

## O=CC(=O)O
  melting point: 98 °C

## OC1CCCCCC1
  melting point: 2 °C

## Nc1ccccc1-c1cccnc1
  melting point: 72 °C

## Cc1ncoc1C(=O)O
  melting point: 239 to 240 °C

## O=C(O)C(F)C(F)(F)F (centres undefined)
  melting point: 28.2 to 29.2 °C

## C=CC(=O)OCCCCCCCC(C)C
  melting point: -100 °C

## CC=CCC=CCCC(=O)C1OC1C(N)=O (centres undefined)
  melting point: 93.5 °C

## CCN(CC)C(=O)Nc1ccc(OCC(O)CNC(C)(C)C)c(C(C)=O)c1 (centres undefined)
  melting point: 110 °C

## COC(=O)/C=C(/C(=O)OC)N(Nc1ccccc1N=Nc1ccccc1)c1ccccc1
  melting point: 153 to 154 °C

## Cc1cc(C)c(CC(=NOCC(=O)O)c2cc3ccccc3o2)c(C)c1
  melting point: 143 to 144 °C

## CCCCCCCCSCCO
  melting point: 0 °C

## CCOC(=O)c1nnsc1N
  melting point: 124 °C

## N=C(N)NCCC[C@H](NC(=O)OCc1ccccc1)C(=O)O
  melting point: 173 to 175 °C

## O=C(O)c1cccc(C(=O)O)c1O
  melting point: 244 °C

## Sc1nnc(S)s1
  melting point: 161 to 165 °C

## COc1cccc(C2C(C(=O)OC(C)C)=C(C)NC(C)=C2C(=O)OC(C)C)c1O
  melting point: 196 °C

## N#CC(=C1CCCC1)c1nc2ccccc2s1
  melting point: 235 °C

## CCOC(=O)C1=C(CBr)NC(=O)NC1C (centres undefined)
  melting point: 148 °C

## CCCCS(=O)(=O)NC(Cc1ccc(OCCCCC2CCNCC2)cc1)C(=O)O (centres undefined)
  melting point: 223 °C

## Oc1ccccc1N1CCNCC1
  melting point: 125 °C

## COC(=O)c1cc2c(s1)-c1cc(Cl)ccc1SC2
  melting point: 158 to 160 °C

## CCCCCCCCCC=CC(=O)O
  melting point: 17.1 °C

## CC(O)c1cc(C(F)(F)F)cc(C(F)(F)F)c1 (centres undefined)
  melting point: 72 °C

## O=Cc1cccc2ccccc12
  melting point: 33.5 °C

## CCCCCCCCCCNC(=O)C(C(F)(F)F)C(F)(F)F
  melting point: 66 °C

## C[Si](C)(C)NC(=O)N[Si](C)(C)C
  melting point: 232 °C

## O=Cc1cc(Cl)cc(Br)c1O
  melting point: 86 °C

## COC(=O)c1cc(C)nn1C(=O)OC
  melting point: 111 to 112 °C

## CN(C)c1ccc(N)cc1
  melting point: 53 °C

## O=C1CC(c2ccccc2)Cc2ccncc21 (centres undefined)
  melting point: 83 °C

## Cc1cc(I)cnc1NCC(=O)OC(C)(C)C
  melting point: 99 °C

## CCOC(=O)C=C1SC(N2CCCCC2)C(=O)N1CC (centres undefined)
  melting point: 86 °C

## O=C1CCCCC1Cl (centres undefined)
  melting point: 23 °C

## CC12CCC(C(Br)=C(Br)C1=O)C2(C)C (centres undefined)
  melting point: 103 °C

## CCCCCCN(C)C(=O)COC(=O)c1ccccc1
  melting point: 100 °C

## OCc1ccc(-c2ccco2)cc1
  melting point: 85 to 86 °C

## Nc1ccc(N2CCCCC2)cc1
  melting point: 27 °C

## OC1CCC(O)C1 (centres undefined)
  melting point: 40 °C

## Fc1cccc(F)c1CCl
  melting point: 34 °C

## O=C1C=C(N2CC2)C(=O)C(N2CC2)=C1N1CC1
  melting point: 163 °C

## Nc1ccc(S(=O)(=O)Nc2ccc(Cl)nn2)cc1
  melting point: 187 °C

## CC(C)(C)OC(=O)N[C@@H](CC(=O)OCc1ccccc1)C(=O)O
  melting point: 111 °C

## O=C(NC(=O)c1ccccc1Cl)Nc1ccc(OC(F)(F)F)cc1
  melting point: 195 °C

## CC1CCCCN1 (centres undefined)
  melting point: -5 to -4 °C

## N#CC=C(Cl)C#N
  melting point: 60.5 °C

## O=c1ccoc2ccccc12
  melting point: 59 °C

## Cc1ccc(C=O)c2ccccc12
  melting point: 31 to 33 °C

## CC(C)(C)c1cc(C(C)(C)C)c(O)cc1O
  melting point: 120 to 121 °C

## CC(C)(C)OC(=O)N1CC(=O)C1
  melting point: 51 °C

## NC(=O)CS(=O)(=O)c1ccccc1
  melting point: 156 °C

## CCOC(=O)C(C#N)=C(S)Nc1ccccc1
  melting point: 118 to 119 °C

## CCOC(=O)ON=C(C(=O)c1ccccc1)c1ccccc1
  melting point: 73 to 75 °C

## Cc1ccc(S(=O)(=O)c2ccccc2)cc1
  melting point: 127 °C

## N#Cc1cc(N)ccc1-n1cccc1
  melting point: 135 to 136 °C

## O=C(CBr)c1c(Cl)cc(C(F)(F)F)cc1Cl
  melting point: 46 to 48 °C

## O=C(O)c1cc(F)c(F)c(O)c1F
  melting point: 143 to 147 °C

## CCOC(=O)c1cc2ccccc2cc1O
  melting point: 80 to 81 °C

## CSC(=NOC(=O)N(C)C=C1C=NC=N1)C(=O)N(C)C
  melting point: 252 °C

## COc1cc(Br)cc(Br)c1
  melting point: 41.5 °C

## O=S(=O)(c1ccc(N=C=S)cc1)N1CCCCC1
  melting point: 126 to 127 °C

## CCOc1cccc(C(=O)NN)c1
  melting point: 102 °C

## O=c1[nH]c2ccccc2n1C1CCN(CCCC(c2ccc(F)cc2)c2ccc(F)cc2)CC1
  melting point: 216 °C

## Cc1ccc(C)c2c(=O)c(=O)c12
  melting point: 133 °C

## CCOC(=O)CC(SP(=S)(OC)OC)C(=O)OCC (centres undefined)
  melting point: 2.8 °C

## O=C(NC(Cc1cccnc1)C(=O)O)OCC1c2ccccc2-c2ccccc21 (centres undefined)
  melting point: 166 °C

## CC(C)(Oc1ccc(C2CC2(Cl)Cl)cc1)C(=O)O (centres undefined)
  melting point: 115 °C

## CC1CCCCC1O (centres undefined)
  melting point: 7 °C
